Measurements as given in US9669034B2, “4-aryl-N-phenyl-1,3,5-triazin-2-amines containing a sulfoximine group” (BAYER INTELLECTUAL PROPERTY GMBH, priority 2011, dated 2017).
Like-named read-outs stand apart in the source and are kept apart here.

Key:
[1] = system: HeLa human cervical tumour cells; assay: Proliferation assay (crystal violet), HeLa; type: cell-based; details: Method 3, read-out: Inhibition of HeLa cell proliferation, IC50
Summary of the method: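 Cells were seeded at 3000/well (NCI-H460, HeLa), 5000/well (HeLa-MaTu-ADR) or 1500/well (Caco-2) in medium with 10% FCS. After 24 h, compounds ([…], 0.5% DMSO) were added for 4 days. Crystal violet absorbance at 595 nm was normalized to a zero-point plate and untreated cells; IC50 came from a 4-parameter fit.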

CDK2/CycE = CDK2/CycE (Homo sapiens (Human), UniProt P24941); assay: CDK2/CycE kinase assay (TR-FRET); type: biochemical; details: Method 2
Summary of the method: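 Enzyme was GST-tagged human CDK2 with GST-tagged human CycE, expressed in Sf9 insect cells and glutathione-affinity purified. The kinase reaction used a biotinylated peptide substrate, with inhibition measured by TR-FRET.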

[2] = system: Caco-2 human colorectal carcinoma; assay: Proliferation assay (crystal violet), Caco-2; type: cell-based; details: Method 3, read-out: Inhibition of Caco-2 cell proliferation, IC50
Description: (§1) Cultivated tumour cells (NCI-H460, human non-small cell lung carcinoma cells, ATCC HTB-177; DU145, hormone-independent human prostate carcinoma cells, ATCC HTB-81; HeLa-MaTu, human cervical carcinoma cells, EPO-GmbH, Berlin; HeLa-MaTu-ADR, multidrug-resistant human cervical carcinoma cells, EPO-GmbH, Berlin; HeLa human cervical tumour cells, ATCC CCL-2; Caco-2 human colorectal carcinoma, ATCC HTB-37; B16F10 mouse melanoma cells, ATCC CRL-6475) were plated at a density of 5000 cells/well (DU145, HeLa-MaTu-ADR), 3000 cells/well (NCI-H460, HeLa-MaTu, HeLa), 1500 cells/well (Caco-2), or 1000 cells/well (B16 F10) in a 96-well multititer plate in 200 μL of their respective growth medium supplemented 10% fetal calf serum. After 24 hours, the cells of one plate (zero-point plate) were stained with crystal violet (see below), while the medium of the other plates was replaced by fresh culture medium (200 μL), to which the test substances were added in various concentrations (0 M, as well as in the range of […]; the final concentration of the solvent dimethylsulfoxide was 0.5%). The cells were incubated for 4 days in the presence of test substances. Cell proliferation was determined by staining the cells with crystal violet: the cells were fixed by adding 20 μL/measuring point of an 11% glutaric aldehyde solution for 15 minutes at room temperature. After three washing cycles of the fixed cells with water, the plates were dried at room temperature. The cells were stained by adding 100 μL/measuring point of a 0.1% crystal violet solution (pH 3.0). After three washing cycles of the stained cells with water, the plates were dried at room temperature. The dye was dissolved by adding 100 μL/measuring point of a 10% acetic acid solution. The absorbance was determined by photometry at a wavelength of 595 nm. The change of cell number, in percent, was calculated by normalization of the measured values to the absorbance values of the zero-point plate (=0%) and the absorbance of the untreated (0 M) cells (=100%). The IC50 values were determined by means of a 4 parameter fit.

[3] = system: B16F10 mouse melanoma cells; assay: Proliferation assay (crystal violet), B16F10; type: cell-based; details: Method 3, read-out: Inhibition of B16F10 cell proliferation, IC50
Description: as §1

CDK9/CycT1 = CDK9/CycT1 (Homo sapiens (Human), UniProt P50750); assay: CDK9/CycT1 kinase assay (TR-FRET); type: biochemical; details: Method 1
Sequence of CDK9/CycT1 (P50750 whole entry): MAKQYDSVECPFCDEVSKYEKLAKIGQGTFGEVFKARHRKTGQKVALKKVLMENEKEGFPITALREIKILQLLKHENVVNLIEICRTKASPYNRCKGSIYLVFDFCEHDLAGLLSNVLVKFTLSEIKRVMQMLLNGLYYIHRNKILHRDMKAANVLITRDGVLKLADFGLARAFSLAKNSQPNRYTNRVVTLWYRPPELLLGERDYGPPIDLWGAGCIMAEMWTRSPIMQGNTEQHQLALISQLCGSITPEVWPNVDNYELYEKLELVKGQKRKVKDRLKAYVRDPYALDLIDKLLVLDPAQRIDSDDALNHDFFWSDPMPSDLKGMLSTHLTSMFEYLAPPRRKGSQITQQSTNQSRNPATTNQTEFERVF
Sequence of CDK9/CycT1 (O60563 whole entry partner): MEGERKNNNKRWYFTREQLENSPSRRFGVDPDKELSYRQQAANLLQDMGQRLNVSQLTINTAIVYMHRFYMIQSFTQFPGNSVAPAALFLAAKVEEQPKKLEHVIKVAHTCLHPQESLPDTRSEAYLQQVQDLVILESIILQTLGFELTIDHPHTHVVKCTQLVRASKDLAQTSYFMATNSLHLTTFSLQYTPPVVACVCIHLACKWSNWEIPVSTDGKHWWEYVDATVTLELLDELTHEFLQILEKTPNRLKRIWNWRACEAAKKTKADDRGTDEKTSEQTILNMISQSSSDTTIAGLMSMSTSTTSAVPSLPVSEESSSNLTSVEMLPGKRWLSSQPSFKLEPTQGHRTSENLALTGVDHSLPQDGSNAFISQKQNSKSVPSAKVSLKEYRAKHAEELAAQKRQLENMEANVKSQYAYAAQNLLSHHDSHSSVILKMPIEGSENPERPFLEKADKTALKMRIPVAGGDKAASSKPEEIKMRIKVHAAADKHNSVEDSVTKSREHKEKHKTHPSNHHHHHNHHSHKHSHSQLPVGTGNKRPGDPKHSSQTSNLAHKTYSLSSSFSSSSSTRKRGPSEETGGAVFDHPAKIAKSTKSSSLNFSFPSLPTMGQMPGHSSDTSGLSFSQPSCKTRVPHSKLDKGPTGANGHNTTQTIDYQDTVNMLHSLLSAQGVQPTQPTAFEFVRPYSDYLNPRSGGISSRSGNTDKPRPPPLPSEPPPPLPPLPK
Summary of the method: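 Recombinant full-length His-tagged human CDK9/CycT1, insect-cell expressed and Ni-NTA purified. Substrate is a biotinylated peptide (biotin-Ttds-linked). Kinase inhibition is read out by TR-FRET.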

[4] = system: NCI-H460, human non-small cell lung carcinoma cells; assay: Proliferation assay (crystal violet), NCI-H460; type: cell-based; details: Method 3, read-out: Inhibition of NCI-H460 cell proliferation, IC50
Description: as §1

[5] = system: HeLa-MaTu-ADR, multidrug-resistant human cervical carcinoma cells; assay: Proliferation assay (crystal violet), HeLa-MaTu-ADR; type: cell-based; details: Method 3, read-out: Inhibition of HeLa/MaTu/ADR cell proliferation, IC50
Description: as §1

[6] = system: DU145, hormone-independent human prostate carcinoma cells; assay: Proliferation assay (crystal violet), DU145; type: cell-based; details: Method 3, read-out: Inhibition of DU145 cell proliferation, IC50
Description: as §1

[7] = Homo sapiens, Caco-2, Caco-2 cells
[8] = Mus musculus, B16-F10, B16F10 cells
[9] = Homo sapiens, NCI-H460, NCI-H460 cells
[10] = Homo sapiens, DU-145, DU145 cells

| SMILES | IC50 ([1]; Homo sapiens, HeLa) | IC50 (CDK2/CycE) | IC50 [2, 7] | IC50 [3, 8] | IC50 (CDK9/CycT1) | IC50 [4, 9] | IC50 ([5]; Homo sapiens, HeLa) | IC50 [6, 10] | IC50 [1] | IC50 ([2]; Caco-2 cells) | IC50 ([3]; B16F10 cells) | IC50 ([4]; NCI-H460 cells) | IC50 [5] | IC50 ([6]; DU145 cells) |
| --- | --- | --- | --- | --- | --- | --- | --- | --- | --- | --- | --- | --- | --- | --- |
| CS(=N)(=O)Cc1cccc(Nc2ncnc(-c3ccc(F)cc3OCc3cccc(C#N)c3)n2)c1 (racemic) [Example 98, (rac)-3-({5-Fluoro-2-[4-({3-[(S-methylsulfonimidoyl)methyl]phenyl}amino)-1,3,5-triazin-2-yl]phenoxy}methyl)benzonitrile] | 140 nM | 180 nM | 150 nM | 130 nM | 3 nM | 120 nM | 260 nM | 120 nM | – | – | – | – | – | – |
| C=C(C)COc1cc(F)ccc1-c1ncnc(Nc2cccc(CS(C)(=N)=O)c2)n1 (racemic) [Example 99, (rac)-4-{4-Fluoro-2-[(2-methylprop-2-en-1-yl)oxy]phenyl}-N-{3-[(S-methylsulfonimidoyl)methyl]phenyl}-1,3,5-triazin-2-amine] | 120 nM | 250 nM | 230 nM | 200 nM | 2 nM | 150 nM | 180 nM | 120 nM | – | – | – | – | – | – |
| CS(=N)(=O)Cc1cccc(Nc2ncnc(-c3ccc(F)cc3OCc3cc(F)cc(F)c3F)n2)c1 (racemic) [Example 101, (rac)-4-{4-Fluoro-2-[(2,3,5-trifluorobenzyl)oxy]phenyl}-N-{3-[(S-methylsulfonimidoyl)methyl]phenyl}-1,3,5-triazin-2-amine] | 330 nM | 500 nM | 240 nM | 340 nM | 4 nM | 360 nM | 350 nM | 340 nM | – | – | – | – | – | – |
| C/C=C\COc1cc(F)ccc1-c1ncnc(Nc2cccc(CS(C)(=N)=O)c2)n1 (racemic) [Example 102, (rac)-4-{2-[(2Z)-But-2-en-1-yloxy]-4-fluorophenyl}-N-{3-[(S-methylsulfonimidoyl)methyl]phenyl}-1,3,5-triazin-2-amine] | 340 nM | 800 nM | 160 nM | 140 nM | 7 nM | 150 nM | 140 nM | 95 nM | – | – | – | – | – | – |
| CS(=N)(=O)Cc1cccc(Nc2ncnc(-c3ccc(F)cc3OCc3cc(F)c(F)c(F)c3)n2)c1 (racemic) [Example 104, (rac)-4-{4-Fluoro-2-[(3,4,5-trifluorobenzyl)oxy]phenyl}-N-{3-[(S-methylsulfonimidoyl)methyl]phenyl}-1,3,5-triazin-2-amine] | 110 nM | 54 nM | 150 nM | 120 nM | 2 nM | 110 nM | 240 nM | 120 nM | – | – | – | – | – | – |
| COc1cc(F)ccc1-c1ncnc(Nc2cc(F)c(F)c(CS(C)(=O)=NC#N)c2)n1 (racemic) [Example 105, (rac)-[(2,3-Difluoro-5-{[4-(4-fluoro-2-methoxyphenyl)-1,3,5-triazin-2-yl]amino}benzyl)(methyl)-oxido-λ^6-sulfanylidene]cyanamide] | 110 nM | 140 nM | 81 nM | 140 nM | 3 nM | 130 nM | 71 nM | 120 nM | – | – | – | – | – | – |
| CCS(=O)(Cc1cccc(Nc2ncnc(-c3ccc(F)cc3OC)n2)c1)=NC#N (racemic) [Example 107, (rac)-[Ethyl(3-{[4-(4-fluoro-2-methoxyphenyl)-1,3,5-triazin-2-yl]amino}benzyl)oxido-λ^6-sulfanylidene]cyanamide] | 230 nM | 360 nM | 500 nM | 300 nM | 4 nM | 450 nM | 340 nM | 280 nM | – | – | – | – | – | – |
| COc1cc(F)ccc1-c1ncnc(Nc2cc(C)cc(CS(C)(=O)=NC#N)c2)n1 (racemic) [Example 111, (rac)-[(3-{[4-(4-Fluoro-2-methoxyphenyl)-1,3,5-triazin-2-yl]amino}-5-methylbenzyl)(methyl)oxido-λ^6-sulfanylidene]cyanamide] | 100 nM | 250 nM | 220 nM | 130 nM | 3 nM | 270 nM | 170 nM | 110 nM | – | – | – | – | – | – |
| C=C(CO)COc1cc(F)ccc1-c1ncnc(Nc2cccc(CS(C)(=N)=O)c2)n1 (racemic) [Example 112, (rac)-2-({5-Fluoro-2-[4-({3-[(S-methylsulfonimidoyl)methyl]phenyl}amino)-1,3,5-triazin-2-yl]phenoxy}methyl)prop-2-en-1-ol] | 330 nM | 730 nM | 350 nM | 320 nM | 4 nM | 320 nM | 390 nM | 300 nM | – | – | – | – | – | – |
| CS(=N)(=O)Cc1cccc(Nc2ncnc(-c3ccc(F)cc3OCc3ccc(F)cc3)n2)c1 (single isomer, unassigned) [Example 56.a, 4-{4-Fluoro-2-[(4-fluorobenzyl)oxy]phenyl}-N-{3-[(S-methylsulfonimidoyl)methyl]phenyl}-1,3,5-triazin-2-amine] | 350 nM | 560 nM | 430 nM | 340 nM | 4 nM | 340 nM | 270 nM | 340 nM | – | – | – | – | – | – |
| CS(=N)(=O)Cc1cccc(Nc2ncnc(-c3ccc(F)cc3OCc3ccc(F)cc3)n2)c1 (single isomer, unassigned) [Example 56.b, 4-{4-Fluoro-2-[(4-fluorobenzyl)oxy]phenyl}-N-{3-[(S-methylsulfonimidoyl)methyl]phenyl}-1,3,5-triazin-2-amine] | – | 560 nM | – | – | 5 nM | – | – | – | 540 nM | 540 nM | 390 nM | 470 nM | 540 nM | 400 nM |
| COc1cc(F)ccc1-c1ncnc(Nc2cc(F)cc(CS(C)(=O)=NC#N)c2)n1 (single isomer, unassigned) [Example 71, [(3-Fluoro-5-{[4-(4-fluoro-2-methoxyphenyl)-1,3,5-triazin-2-yl]amino}benzyl)(methyl)oxido-λ^6-sulfanylidene]cyanamide] | 100 nM | 230 nM | 130 nM | 110 nM | 6 nM | 160 nM | 120 nM | 120 nM | – | – | – | – | – | – |
| COc1cc(F)ccc1-c1ncnc(Nc2cc(F)cc(CS(C)(=O)=NC#N)c2)n1 (single isomer, unassigned) [Example 72, [(3-Fluoro-5-{[4-(4-fluoro-2-methoxyphenyl)-1,3,5-triazin-2-yl]amino}benzyl)(methyl)oxido-λ^6-sulfanylidene]cyanamide] | – | 240 nM | – | – | 5 nM | – | – | – | 71 nM | 190 nM | 160 nM | 160 nM | 120 nM | 110 nM |
